Experimental data: US20150190410A1, “USE OF CREATINE AND PHOSPHOCREATINE IN THE TREATMENT OF EPILEPSY AND ALCOHOL ADDICTION” (Dignity Health, priority 2012, published 2015)
Values joined by “and” are separate entries in the source; they are usually repeats but may differ in a detail not shown here. Equal values may be shown once.

How the values were obtained:
[1] = system: extra-synaptic GABAA receptors; assay: Allosteric modulation of extra-synaptic GABAA receptors (expression cells; whole cell patch clamp); format: cell-based
Source text: FIG. 3 depicts, in accordance with an embodiment herein, utilizing whole cell patch clamp on primary cultured neuron (rat cortex) to confirm creatine's effect on extra-synaptic GABAA receptors.

[2] = system: GABAA receptor expressing cells; assay: Co-application with ethanol on GABAA receptor expressing cells; format: cell-based; details: depends on concentration relative to ethanol
Source text: Thus, in one embodiment, creatine, phosphocreatine and their analogs can be used to prevent and/or provide protection against alcohol addiction.
Alcoholism is a serious problem both to the individual, the individual's family, and society. Currently there is no compound that can effectively prevent alcoholism. Alcohol (Ethanol) acts as a positive allosteric modulator of extrasynaptic GABAA receptors. […] Thus creatine, phosphocreatine and their analogs may be used to prevent and/or provide protection against alcohol addiction.

[3] = system: atypical absence epilepsy rodent models; assay: AY9944 atypical absence epilepsy rodent model: seizure number and seizure time under creatine; format: in vivo, rat
[4] = system: atypical absence epilepsy rodent models; assay: as above; format: in vivo, rat; details: for Seizure # Between 13:00:00 to 15:00:00: twice daily injection of creatine at 30 mg/kg, individual epileptic animals
Protocol: • Induced via administering the cholesterol inhibitor AY9944 during postnatal developing period P2 to P21. • Epileptic seizure is chronic, resembling all the symptoms of atypical absence epilepsy • Failure to show ictal immobility • Slow spike-wave discharges • Cognitive impairments • Counterintuitive with application of GABA Positive allosteric modulators and Agonists. • Greater seizure susceptibility in female than male.
11 epileptic animals were treated initially with saline to establish base line (day 0), then treated with twice daily injection of creatine at 30 mg/kg (days 1-5). […] Specifically, the inventors performed the following: • Day 0—Control (saline injection) • Injection of creatine between days 1-5—twice daily injection of 30 mg/kg of creatine • Day #2 (30 mg/kg creatine) • Day #5 (30 mg/kg creatine)

[5] = Day 2 vs Day 0 saline control, 30 mg/kg twice daily, individual animals, 30 mg/kg
[6] = Day 5 vs Day 0 saline control, 30 mg/kg twice daily, individual animals, 30 mg/kg
[7] = average of 11 animals, Day 2, 30 mg/kg twice daily
[8] = average of 11 animals, Day 5, 30 mg/kg twice daily

`CN(CC(=O)O)C(=N)N` [creatine] was tested, and the “mode of action on extra-synaptic GABAA receptors” value [1] was “partial negative allosteric modulator”, the “effect on the GABAA receptor positive allosteric modulator effect of alcohol (ethanol)” value [2] was “preventing or significantly diminishing” and the “duration of effect of a single dose compared to current antiepileptic drugs” value [3] was “last much longer than conventional antiepileptic drugs”. The “Seizure # Between 13:00:00 to 15:00:00” value ([4]; Day 2, 30 mg/kg) was 2 and 17 (2×) and 14 and 7 and 31 and 25 and 16 and 20 and 4 and 15, the “% Seizure # Reduction, Day #2 Post Creatine/Control” value [4, 5] was 28.57% and 91.30% and 63.04% and 56.25% and 12.50% and 27.91% and 30.56% and 44.83% and 25.93% and 69.23% and 26.09% and the “% Total Seizure Time Reduction, Day #2 Post Creatine/Control” value [4, 5] was 63.25% and 80.95% and 92.74% and 82.31% and 52.13% and 40.86% and 76.08% and 73.42% and 89.95% and 85.75% and 74.05%. For the same compound, the “Seizure # Between 13:00:00 to 15:00:00” value ([4]; Day 5, 30 mg/kg) was 5 (2×) and 21 and 18 and 4 and 26 and 23 and 13 and 16 and 10 and 15, the “% Seizure # Reduction, Day #5 Post Creatine/Control” value [4, 6] was 76.19% and 78.26% and 54.35% and 43.75% and 50.00% and 39.53% and 36.11% and 55.17% and 40.74% and 23.08% and 34.78% and the “% Total Seizure Time Reduction, Day #5 Post Creatine/Control” value [4, 6] was 86.37% and 70.56% and 58.23% and 70.52% and 46.23% and 35.72% and 80.58% and 85.99% and 92.36% and 36.75% and 74.61%. For the same compound, the “% Seizure # Reduction, Day #2 Post Creatine/Control, Average” value [4, 7] was 43.29%, the “% Total Seizure Time Reduction, Day #2 Post Creatine/Control, Average” value [4, 7] was 73.77% and the “% Seizure # Reduction, Day #5 Post Creatine/Control, Average” value [4, 8] was 48.36%. The “% Total Seizure Time Reduction, Day #5 Post Creatine/Control, Average” value [4, 8] was 67.08%, the “reduction in duration of epileptic seizure events” value ([4]; epileptic rodent model) was “greater than 70%” and the “reduction in frequency of epileptic seizure events” value ([4]; epileptic rodent model) was “greater than 70%”.
For `NC1=NCCN1CC(=O)O` [cyclocreatine], the “therapeutic effect compared with creatine” value ([4]; atypical absence epilepsy rodent models) was “does not confer the same therapeutic effect as creatine”.
With `CN(CC(=O)O)C(=N)NP(=O)(O)O` [phosphocreatine] the “effect on expression cells compared with creatine” value ([1]; expression cells) was “same effect as creatine” and the “effect on the GABAA receptor positive allosteric modulator effect of alcohol (ethanol)” value [2] was “preventing or significantly diminishing”.
